Measurements from US20070264241A1, “Compounds for Enhanced Cancer Therapy” (priority 2004, published 2007).
“Also recorded” adds a separate entry of the source.

Experiments:
[1] = system: GFAP and connexin 43 in S6 cells; assay: Western blot of GFAP and connexin 43 in S6 glioma cells after 4-PB; assay type: cell-based, Rat; conditions: 2 mM 4-PB for 2 days
Experimental: Protein from S6 cells treated with 4-PB for 48 h was extracted and a Western blot analysis was performed. The intensity of the Cx43 specific signal was determined by imager and the activation of Cx43 was calculated. S6 cells not treated with 4-PB acted as reference.

[2] = system: gap junction communication between HNSC100 neural stem cells and glioblastoma cells; assay: Fluorescent dye transfer between neural stem cells and glioma cells; assay type: cell-based, human; conditions: pre-treatment 48 hours with 4-PB, 0.5 mM (stem cells) and 2 mM (glioblastoma cells)
Experimental: Donor human neural stem cells (1×10^5 HNSC100) and recipient human glioblastoma cells (1×10^5 U343MGa) cells were plated each in 4 separate 35 mm petri dishes. […] Donor cells were incubated with 10 μM Dil (a fluorescent lipophilic carbocyanine tracer; Molecular Probes) and 5 μM Calcein-AM (an acetoxymethyl ester derivative; Molecular Probes) for 20 min in complete medium. Cells were washed three times with culture medium and twice with PBS to remove free dye. After trypsinization, cells were pelleted by centrifugation and resuspended in co-culture medium. Donor cells 50% confluent were added to the plate of recipient cells. AGA treatment, when performed, was always continued throughout the experiment. Assessment of functional GJC by Calcein dye transfer from donor to recipient cells was carried out after 4 hours using an Olympus BX50WI microscope.

U87MG cells = assay: XTT cytotoxicity assay of phenylbutyrate and of nucleoside analogues with or without phenylbutyrate pre-incubation; assay type: cell-based, human; conditions: 4-phenylbutyrate cytotoxicity assay, incubation 24 hours; read-out: IC50 U87MG (phenylbutyrate alone)
Experimental: Briefly, cells were harvested by trypsinzation, stained by Tryphan Blue for cell viability counting, seeded in triplicate in 96-well plates (1.000-2.000 cells/well) where after media conditioned with a fixed concentration of phenyl butyrate (3.16 mM) were added to the plates followed by incubation for 24 hours at 37° C. and 5% CO2. Cell proliferation/cytotoxicity was assessed by adding the colour generating substrates of the Cell Proliferation kit II (XTT) from Roche (Cat. No. 1465015) and measuring absorbance at 450 nm and 690 nm with a Thermo Labsystems Multiscan Ascent reader.
(§1) Cells were seeded at a density of 1.000-2.000 cells/well in 96-well plates. Cells were pre-incubated with 4-phenyl butyrate for 24 hours prior to drug exposure by adding media conditioned with phenyl butyrate at a fixed concentration (3.16 mM). Plated incubated for 24 hours (37° C., 5% CO2) where after media was discarded and replaced by media conditioned with various concentrations of nucleoside analogs (e.g. AZT), 200 μl/well. After 120 hours of drug exposure the experiments were terminated. Cell proliferation/cytotoxicity was assessed by adding the colour generating substrates of the Cell Proliferation kit II (XTT) from Roche (Cat. No. 1465015) and measuring absorbance at 450 nm and 690 nm with a Thermo Labsystems Multiscan Ascent reader.
The data was corrected for background media-only absorbance where after the 50% growth inhibitory concentration—IC50 (the dose that inhibits cell growth by 50%) was calculated for each treatment.
Briefly, cells were harvested by trypsinzation, stained by Tryphan Blue (Cambrex) for cell viability counting, seeded in triplicate in poly-L-lysine (PLL) (Sigma # P6282) coated 96-well plates (1.000-2.000 cells/well) where after media conditioned with a fixed concentration of phenyl butyrate (3.16 mM) was added to the plates followed by incubation for 24 hours at 37° C. and 5% CO2. Cell proliferation/cytotoxicity was assessed by adding the colour generating substrates of the
as §1, with “cells/well in PLL coated 96-well plates.” for “cells/well in 96-well plates.”, “of nucleoside analogs; AZT (Sigma # A2169), AraC (Sigma # C6645), Cladribine (CdA) (Sigma #C4438), Gancidovir (GCV) (Sigma # G2536) and Gemcitabine (Orifarm), 200 μl/well.” for “of nucleoside analogs (e.g. AZT), 200 μl/well.”, “Ascent reader. he data was corrected for background media-only absorbance where after the 50% growth inhibitory concentration—IC50 (the dose that inhibits cell growth by 50%) was calculated for ach treatment.” for “Ascent reader.”

[3] = system: U87MG/tomato kinase positive cells; assay: Synergistic cell killing effect of AZT and 4-PB; assay type: cell-based, human; conditions: 72 hours
Experimental: Medium was replaced by 300 μL of MTT solution (0.5mg/mL; Sigma # M 2128) per well and incubated at 37° C. for 30 minutes. The MTT solution was aspirated and 350 μL of isopropranol was added to dissolve the formazan product by gentle shaking. Three 100 μL aliquots of formazan solution from each well were pipetted into a 96-well microplate. Optical density was measured by Multiscan RMCC/340 plate reader (MicroELISA Reader) at 570 nm with reference at 650 nm. The results were expressed as percentage of live cells compared to control untreated cells (100%). The analyses were run as three independent experiments.

## 4-phenylbutyrate [4-PB]
[1]
  expression of GFAP: increased expression
  expression of connexin 43: increased expression
[2]
  dye transfer from neural stem cells to glioblastoma cells: can induce such gap junction communication; also recorded: substantially enhanced
U87MG cells
  IC50: 4.14 mM
[3]; 15 μM AZT and 0.5 mM 4-PB
  combination effect on cell killing: clear additive or synergistic effects
[3]; 15 μM AZT, 4-PB 0.5-8 mM
  effect of 4-PB on cell killing by AZT: enhanced the effects of AZT
